Reference: patent US6613791B1, “N-substituted azaheterocyclic carboxylic acids and their use” (Novo Nordisk A/S, priority 1994, dated 2003)

Test system: formalin induced pain response
Assay: Formalin induced pain or paw oedema in mice
Format: in vivo
Conditions: 0.1 mg/kg; NMRI female mice, 20 μl 1% formalin into left hind paw
Procedure: Values for in vivo inhibition of formalin induced pain or oedema for the compounds of the present invention were assessed in mice essentially by the method of Wheeler-Aceto and Cowan (Agents Action 1991, 34, 265-269).
About 20 g NMRI female mice were injected 20 μl 1% formalin into the left hind paw. The animals were then placed on a heated (31° C.) table, and the pain response was scored. After 1 h they were killed and bled. Left and right hind paws were removed and the weight difference between the paws was used as indication of the oedema response of the formalin injected paw.

| Compound | % Pain inhibition (inhibition of formalin induced pain response) [%] |
| --- | --- |
| Cl.O=C(O)C1CN(CCCN2c3ccccc3CCc3ccccc32)CCO1 (stereo not shown) [Example 8, 4-(3-(10,11-Dihydro-5H-dibenz[b,f]azepin-5-yl)-1-propyl)-2-morpholinecarboxylic Acid Hydrochloride] | 34 |
| Cl.NC(=O)C1CCCN(CCCN2c3ccccc3CCc3ccccc32)C1 (stereo not shown) [Example 4, 1-(3-(10,11-Dihydro-5H-dibenz[b,f]azepin-5-yl)-1-propyl)-3-piperidinecarboxamide Hydrochloride] | 47 |
| Cl.OC1(c2ccc(Cl)cc2)CCN(CCCN2c3ccccc3CCc3ccccc32)CC1 [Example 2, 4-(4-Chlorophenyl)-1-(3-(10,11-dihydro-5H-dibenz[b,f]azepin-5-yl)-1-propyl)piperidin-4-ol Hydrochloride] | 13 |
| Cl.O=C(O)C1CCCCN1CCCN1c2ccccc2CCc2ccccc21 (stereo not shown) [Example 5, 1-(3-(10,11-Dihydro-5H-dibenz[b,f]azepin-5-yl)-1-propyl)-2-piperidinecarboxylic Acid Hydrochloride] | 36 |
| Cl.O=C(O)C1Cc2ccccc2CN1CCCN1c2ccccc2CCc2ccccc21 (stereo not shown) [Example 9, 2-(3-(10,11-Dihydro-5H-dibenz[b,f]azepin-5-yl)-1-propyl)-1,2,3,4-tetrahydro-3-isoquinolinecarboxylic Acid Hydrochloride] | 29 |

Test system: not given
Assay: not given
Conditions: not given

| Compound | melting point [°C] |
| --- | --- |
| O=C([O-])C1CN(CCCN2c3ccccc3CCc3ccccc32)CCN1.[K+] (stereo not shown) (hydrate or solvate) | 151 to 155 |
| Cl.O=C(O)C1CCN(CCCN2c3ccc(Br)cc3CCc3cc(Br)ccc32)CC1 (hydrate or solvate) | 165 to 166 |
| Cc1ccc2c(c1)N(CCCN1CCC(C(=O)O)CC1)c1cc(C)ccc1CC2 (hydrate or solvate) [Example 24, 1-(3-(3,7-Dimethyl-10,11-dihydro-5H-dibenz[b,f]azepin-5-yl)-1-propyl)-4-piperidinecarboxylic Acid] | 207 to 209 |
| CC1C(C(=O)O)CCCN1CCCN1c2ccccc2CCc2ccccc21.Cl (stereo not shown) (hydrate or solvate) | 169 to 170 |
| Cl.O=C(O)C1Cc2ccccc2CN1CCCN1c2ccccc2CCc2ccccc21 (stereo not shown) (hydrate or solvate) [Example 9, 2-(3-(10,11-Dihydro-5H-dibenz[b,f]azepin-5-yl)-1-propyl)-1,2,3,4-tetrahydro-3-isoquinolinecarboxylic Acid Hydrochloride] | 205 to 208 |
| Cl.OCC1CCCN(CCCN2c3ccccc3CCc3ccccc32)C1 (stereo not shown) | 145 to 147 |

The next lines start with the values.

| melting point [°C] | Compound |
| --- | --- |
| 233 to 235 | Cl.O=C(O)CC1CCCN(CCCN2c3ccccc3CCc3ccccc32)C1 (stereo not shown) |
| 196 to 199 | Cl.O=C(O)C1CN(CCCN2c3ccccc3CCc3ccccc32)CCO1 (stereo not shown) (hydrate or solvate) [Example 8, 4-(3-(10,11-Dihydro-5H-dibenz[b,f]azepin-5-yl)-1-propyl)-2-morpholinecarboxylic Acid Hydrochloride] |
| 224 to 226 | Cl.O=C(O)C1CCN(CCC=C2c3ccccc3CCc3ccccc32)CC1 |
| 195 to 197 | Cl.O=C(O)C1CCN(CCCN2c3ccccc3CCc3ccccc32)CC1 |
| 122 to 126 | Cl.O=C(O)C1CCCCN1CCCN1c2ccccc2CCc2ccccc21 (stereo not shown) (hydrate or solvate) [Example 5, 1-(3-(10,11-Dihydro-5H-dibenz[b,f]azepin-5-yl)-1-propyl)-2-piperidinecarboxylic Acid Hydrochloride] |
| 185 to 188 | Cl.O=C(O)CC1CCN(CCCN2c3ccccc3CCc3ccccc32)CC1 |
| 198 to 202 | CN(C)c1ccc2c(c1)N(CCCN1CCC(C(=O)O)CC1)c1ccccc1CC2 (hydrate or solvate) [Example 25, 1-(3-(3-Dimethylamino-10,11-dihydro-5H-dibenz[b,f]azepin-5-yl)-1-propyl)-4-piperidinecarboxylic Acid] |
| > 250 | Cl.NC(=O)[C@@H]1CCCN(CCC=C2c3ccccc3CCc3ccccc32)C1 |
| > 250 | Cc1ccc2c(c1)C(=CCCN1CCC(C(=O)O)CC1)c1ccccc1CC2.Cl |
| 237 to 239 | Cl.O=C(O)C1CCN(CCCN2c3cc(Cl)ccc3CCc3ccc(Cl)cc32)CC1 |
| 196 to 198 | Cl.O=C(O)C1CCN(CCCN2c3ccccc3Oc3ccccc32)CC1 |
